Reference: US10517889B2, “Modulators of SMAD7 expression” (Ionis Pharmaceuticals, Inc., priority 2017, dated 2019)

Experiments:
[1] = Body and organ weights after oral gavage in CD-1 mice (Example 7); format: in vivo; settings: 500 mg/kg oral gavage once daily for 4 weeks, end of study
Description: (§1) Groups of 7-8 week old male CD-1 mice were given an oral gavage dose once daily for 4 weeks of 500 mg/kg of Ionis SMAD7 oligonucleotides. Each group contained 8 mice. One group of male CD-1 mice was administered saline by oral gavage daily.
Final body weights were measured at the end of the study. There was no significant difference in the body weight of the mice treated with antisense oligonucleotide compared to the control.
None of the Ionis SMAD7 oligonucleotides caused any changes in organ weights outside the expected range for antisense oligonucleotides.

[2] = Hematology assays after oral gavage in CD-1 mice (Example 7); format: in vivo; design: RBC: unit not given here; settings: 500 mg/kg oral gavage once daily for 4 weeks
Description: as §1
Blood obtained from all mouse groups was measured by an ADVIA2120i hematology analyzer (Siemens, USA) for measurements of the various blood cells, as well as other hematology markers. None of the Ionis SMAD7 oligonucleotides caused changes in the levels of any of the hematology markers outside the expected range for antisense oligonucleotides.

[3] = Body and organ weights after subcutaneous administration in beagle dogs (Example 8); format: in vivo; settings: 30 mg/kg subcutaneous days 1, 3, 5, 8, 15, 22, 29, end of study
Description: (§2) There were 4 animals per group.
Body weights as well as kidney, spleen, liver (with gall bladder), mesenteric lymph node, heart, and thymus weights were measured at the end of the study. […] Ionis SMAD7 oligonucleotides that caused any changes in organ weights outside the expected range for antisense oligonucleotides were excluded from further studies.

[4] = Hematology assays after subcutaneous administration in beagle dogs (Example 8); format: in vivo; settings: 30 mg/kg subcutaneous days 1, 3, 5, 8, 15, 22, 29
Description: as §2
Blood samples were collected from the cephalic vein or saphenous vein of each animal. About 0.5 mL of blood samples was put into tubes containing the potassium salt of EDTA. Blood obtained from all dog groups was measured using an ADVIA2120i hematology analyzer for measurements of the various blood cells, as well as other hematology markers.

dog SMAD7 mRNA = test: Pharmacology: dog SMAD7 mRNA expression in liver, kidney, duodenum, ileum and colon after subcutaneous administration in beagle dogs (Example 8); format: in vivo; settings: 30 mg/kg subcutaneous, necropsy, normalized to HPRT1
Description: as §2
The pharmacological activity of the Ionis oligonucleotides in dogs was assessed by measuring dog SMAD7 mRNA expression in liver, kidney, duodenum, ileum, and colon at necropsy. All the human ASOs used are complementary to dog SMAD7 mRNA.
Tissue samples from all dogs were analyzed for SMAD7 mRNA expression using the primer probe set RTS34649 (forward sequence […], designated SEQ ID NO: 2740; reverse sequence […], designated SEQ ID NO: 2741; probe sequence […], designated SEQ ID NO: 2742), which was normalized to mRNA levels of the housekeeping gene, HPRT1. One-way ANOVA with Dunnet's comparison test was used for statistical analysis.

[5] = Plasma chemistry markers after subcutaneous administration in beagle dogs (Example 8); settings: 30 mg/kg subcutaneous days 1, 3, 5, 8, 15, 22, 29, plasma at day 31
Description: Groups of 24-25 week old male beagle dogs were injected subcutaneously with 30 mg/kg ION Ionis oligonucleotide. There were 4 animals per group. Dogs were injected every two days for the first week (day 1, 3, and 5) and once weekly thereafter (days 8, 15, 22, and 29). A control group of dogs received subcutaneous injections of PBS. Dogs were sacrificed on day 31 approximately 48 hours after the final dose and organs and plasma were harvested for further analysis.
To evaluate the effect of Ionis SMAD7 oligonucleotides on liver and kidney function, plasma levels of transaminases, albumin, creatine and BUN were measured using an automated clinical chemistry analyzer (Toshiba 200FR Neo chemistry analyzer, Toshiba Co., Japan).

[6] = system: human peripheral blood mononuclear cells (PBMCs); test: Human PBMC activation assay, cytokine levels (IL-10, IL-6, MCP-1, TNF-α) in supernatant after 24 hours (Example 9); settings: human PBMC supernatant after 24 hours

Substance: 830037 (antisense CTATTGGCTGATCTGG; 3-10-3 cEt gapmer, further chemistry not given here) [compound 830037]
- Body weight [1]: 35 g
- Heart weight [1]: 0.17 g
- Kidneys weight [1]: 0.69 g
- Liver with gallbladder weight [1]: 1.93 g
- Spleen weight [1]: 0.10 g
- Basophils [2]: 0.01 10^3/μL
- Eosinophils [2]: 0.15 10^3/μL
- Hematocrit [2]: 53.4%
- Hemoglobin [2]: 15.4 g/dL
- Lymphocytes [2]: 73.2%
- MCH [2]: 15.4 pg
- MCHC [2]: 28.9 g/dL
- MCV [2]: 53.2 fL
- Monocytes [2]: 0.13 10^3/μL
- Neutrophils [2]: 19.3%
- RBC [2]: 10.1
- Reticulocytes [2]: 3.1%
- WBC [2]: 4.3 10^3/μL
- platelets [2]: 1122 10^3/μL
- Body weight [3]: 6437 g
- Heart weight [3]: 51.9 g
- Kidney weight [3]: 36.7 g
- Liver weight [3]: 204.1 g
- Mesenteric LN weight [3]: 9.0 g
- Spleen weight [3]: 23.7 g
- Thymus weight [3]: 6.3 g
- Basophils [4]: 0.7%
- Eosinophils [4]: 2.6%
- Hematocrit [4]: 52%
- Hemoglobin [4]: 17.5 g/dL
- Lymphocytes [4]: 32%
- MCH [4]: 22.1 pg
- MCHC [4]: 33.6 g/dL
- MCV [4]: 66 fL
- Monocytes [4]: 8.0%
- Neutrophils [4]: 57%
- PLT [4]: 280 ^3/μL
- RBC [4]: 8.0 ^6/L
- Reticulocytes [4]: 0.3%
- WBC [4]: 8.5 ^3/μL
- % inhibition of SMAD7 mRNA expression (compared to control), Distal colon (dog SMAD7 mRNA): 22%
- % inhibition of SMAD7 mRNA expression (compared to control), Duodenum (dog SMAD7 mRNA): 33%
- % inhibition of SMAD7 mRNA expression (compared to control), Ileum (dog SMAD7 mRNA): 22%
- % inhibition of Smad7 mRNA expression (compared to control), Kidney (dog SMAD7 mRNA): 40%
- % inhibition of Smad7 mRNA expression (compared to control), Liver (dog SMAD7 mRNA): 0%
- % inhibition of SMAD7 mRNA expression (compared to control), Proximal colon (dog SMAD7 mRNA): 50%
- ALT [5]: 3091 IU/L
- AST [5]: 1132 IU/L
- Albumin [5]: 3.7 g/dL
- BUN [5]: 21.2 mg/dL
- Bilirubin [5]: 0.8 mg/dL
- Creatine [5]: 1.0 mg/dL
- Levels of IL-6 ([6]; 0.0128 μM oligonucleotide): 3.8 pg/mL
- Levels of IL-10 ([6]; 0.0128 μM oligonucleotide): 1.6 pg/mL
- Levels of MCP-1 ([6]; 0.0128 μM oligonucleotide): 369.4 pg/mL
- Levels of TNF-α ([6]; 0.0128 μM oligonucleotide): 3.2 pg/mL
- Levels of IL-6 ([6]; 0.064 μM oligonucleotide): 9.8 pg/mL
- Levels of IL-10 ([6]; 0.064 μM oligonucleotide): 3.2 pg/mL
- Levels of MCP-1 ([6]; 0.064 μM oligonucleotide): 557.1 pg/mL
- Levels of TNF-α ([6]; 0.064 μM oligonucleotide): 4.1 pg/mL
- Levels of IL-6 ([6]; 0.32 μM oligonucleotide): 26.7 pg/mL
- Levels of IL-10 ([6]; 0.32 μM oligonucleotide): 8.2 pg/mL
- Levels of MCP-1 ([6]; 0.32 μM oligonucleotide): 1284.2 pg/mL
- Levels of TNF-α ([6]; 0.32 μM oligonucleotide): 8.2 pg/mL
- Levels of IL-6 ([6]; 1.6 μM oligonucleotide): 38.6 pg/mL
- Levels of IL-10 ([6]; 1.6 μM oligonucleotide): 9.5 pg/mL
- Levels of MCP-1 ([6]; 1.6 μM oligonucleotide): 1085.9 pg/mL
- Levels of TNF-α ([6]; 1.6 μM oligonucleotide): 9.2 pg/mL
- Levels of IL-6 ([6]; 8 μM oligonucleotide): 38.4 pg/mL
- Levels of IL-10 ([6]; 8 μM oligonucleotide): 7.1 pg/mL
- Levels of MCP-1 ([6]; 8 μM oligonucleotide): 1917.1 pg/mL
- Levels of TNF-α ([6]; 8 μM oligonucleotide): 11.1 pg/mL
- Levels of IL-6 ([6]; 40 μM oligonucleotide): 58.7 pg/mL
- Levels of IL-10 ([6]; 40 μM oligonucleotide): 4.7 pg/mL
- Levels of MCP-1 ([6]; 40 μM oligonucleotide): 3414.8 pg/mL
- Levels of TNF-α ([6]; 40 μM oligonucleotide): 16.6 pg/mL
- Levels of IL-6 ([6]; 200 μM oligonucleotide): 71.2 pg/mL
- Levels of IL-10 ([6]; 200 μM oligonucleotide): 3.8 pg/mL
- Levels of MCP-1 ([6]; 200 μM oligonucleotide): 2449.3 pg/mL
- Levels of TNF-α ([6]; 200 μM oligonucleotide): 18.9 pg/mL

Substance: 790615 (CCAATGAGAATGCTTC; 3-10-3 cEt gapmer, further chemistry not given here) [compound 790615]
- Body weight [1]: 35 g
- Heart weight [1]: 0.17 g
- Kidneys weight [1]: 0.64 g
- Liver with gallbladder weight [1]: 1.88 g
- Spleen weight [1]: 0.11 g
- Basophils [2]: 0.01 10^3/μL
- Eosinophils [2]: 0.11 10^3/μL
- Hematocrit [2]: 52.2%
- Hemoglobin [2]: 15.2 g/dL
- Lymphocytes [2]: 78.3%
- MCH [2]: 15.0 pg
- MCHC [2]: 29.1 g/dL
- MCV [2]: 51.6 fL
- Monocytes [2]: 0.15 10^3/μL
- Neutrophils [2]: 16.0%
- RBC [2]: 10.1
- Reticulocytes [2]: 2.8%
- WBC [2]: 5.4 10^3/μL
- platelets [2]: 1033 10^3/μL
- Body weight [3]: 7372 g
- Heart weight [3]: 63.6 g
- Kidney weight [3]: 44.1 g
- Liver weight [3]: 253.7 g
- Mesenteric LN weight [3]: 10.2 g
- Spleen weight [3]: 32.3 g
- Thymus weight [3]: 9.9 g
- Basophils [4]: 0.5%
- Eosinophils [4]: 2.6%
- Hematocrit [4]: 45%
- Hemoglobin [4]: 14.5 g/dL
- Lymphocytes [4]: 36%
- MCH [4]: 21.9 pg
- MCHC [4]: 32.5 g/dL
- MCV [4]: 68 fL
- Monocytes [4]: 7.9%
- Neutrophils [4]: 53%
- PLT [4]: 242 ^3/μL
- RBC [4]: 6.6 ^6/L
- Reticulocytes [4]: 0.7%
- WBC [4]: 7.1 ^3/μL
- % inhibition of SMAD7 mRNA expression (compared to control), Distal colon (dog SMAD7 mRNA): 31%
- % inhibition of SMAD7 mRNA expression (compared to control), Duodenum (dog SMAD7 mRNA): 35%
- % inhibition of SMAD7 mRNA expression (compared to control), Ileum (dog SMAD7 mRNA): 0%
- % inhibition of Smad7 mRNA expression (compared to control), Kidney (dog SMAD7 mRNA): 37%
- % inhibition of Smad7 mRNA expression (compared to control), Liver (dog SMAD7 mRNA): 9%
- % inhibition of SMAD7 mRNA expression (compared to control), Proximal colon (dog SMAD7 mRNA): 41%
- ALT [5]: 38 IU/L
- AST [5]: 41 IU/L
- Albumin [5]: 3.4 g/dL
- BUN [5]: 15.7 mg/dL
- Bilirubin [5]: 0.2 mg/dL
- Creatine [5]: 0.8 mg/dL
- Levels of IL-6 ([6]; 0.0128 μM oligonucleotide): 3.7 pg/mL
- Levels of IL-10 ([6]; 0.0128 μM oligonucleotide): 1.1 pg/mL
- Levels of MCP-1 ([6]; 0.0128 μM oligonucleotide): 329.5 pg/mL
- Levels of TNF-α ([6]; 0.0128 μM oligonucleotide): 3.1 pg/mL
- Levels of IL-6 ([6]; 0.064 μM oligonucleotide): 3.8 pg/mL
- Levels of IL-10 ([6]; 0.064 μM oligonucleotide): 1.6 pg/mL
- Levels of MCP-1 ([6]; 0.064 μM oligonucleotide): 281.8 pg/mL
- Levels of TNF-α ([6]; 0.064 μM oligonucleotide): 2.5 pg/mL
- Levels of IL-6 ([6]; 0.32 μM oligonucleotide): 6.5 pg/mL
- Levels of IL-10 ([6]; 0.32 μM oligonucleotide): 2.4 pg/mL
- Levels of MCP-1 ([6]; 0.32 μM oligonucleotide): 424.3 pg/mL
- Levels of TNF-α ([6]; 0.32 μM oligonucleotide): 3.4 pg/mL
- Levels of IL-6 ([6]; 1.6 μM oligonucleotide): 9.0 pg/mL
- Levels of IL-10 ([6]; 1.6 μM oligonucleotide): 3.1 pg/mL
- Levels of MCP-1 ([6]; 1.6 μM oligonucleotide): 495.8 pg/mL
- Levels of TNF-α ([6]; 1.6 μM oligonucleotide): 4.2 pg/mL
- Levels of IL-6 ([6]; 8 μM oligonucleotide): 10.0 pg/mL
- Levels of IL-10 ([6]; 8 μM oligonucleotide): 1.9 pg/mL
- Levels of MCP-1 ([6]; 8 μM oligonucleotide): 449.0 pg/mL
- Levels of TNF-α ([6]; 8 μM oligonucleotide): 4.8 pg/mL
- Levels of IL-6 ([6]; 40 μM oligonucleotide): 11.0 pg/mL
- Levels of IL-10 ([6]; 40 μM oligonucleotide): 0.8 pg/mL
- Levels of MCP-1 ([6]; 40 μM oligonucleotide): 301.9 pg/mL
- Levels of TNF-α ([6]; 40 μM oligonucleotide): 4.8 pg/mL
- Levels of IL-6 ([6]; 200 μM oligonucleotide): 22.9 pg/mL
- Levels of IL-10 ([6]; 200 μM oligonucleotide): 0.7 pg/mL
- Levels of MCP-1 ([6]; 200 μM oligonucleotide): 81.6 pg/mL
- Levels of TNF-α ([6]; 200 μM oligonucleotide): 4.8 pg/mL
